SMILES strings stand for the structures.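 Interpolation was linear, between the two tested concentrations surrounding the appropriate level; five concentrations were tested over 48 hours in 96-well plates. Here, GI50 denotes the concentration required for 50% inhibition of growth. At the TGI there is no net growth.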

Some test systems named below: UO-31 renal; 786-0 renal; HT29 colon; SK-MEL-28 melanoma; UACC-62 melanoma; SW-620 colon; HOP-92 NSCLC; MALME-3M melanoma; MDA-MB-231 breast; RXF 393 renal.
What all share (test): NCI-60 cell line screen, 48 h

As to `CCCn1c(C)nc2c1C(=O)c1ccccc1C2=O`, the GI50 was 9.06 µM with UO-31 renal; 56.8 µM in the assay with 786-0 renal; 25.8 µM in the assay on HT29 colon; more than 100 µM with SK-MEL-28 melanoma; 22.1 µM with UACC-62 melanoma; 33.5 µM in the assay with SW-620 colon. Also, the GI50 in the assay with HOP-92 NSCLC was more than 100 µM; in the assay on MALME-3M melanoma it was 2.71 µM; in the assay with MDA-MB-231 breast, 34.1 µM. The TGI was 60.8 µM with UO-31 renal; more than 100 µM with 786-0 renal; 71.6 µM with HT29 colon; more than 100 µM with SK-MEL-28 melanoma; 67.7 µM with UACC-62 melanoma; more than 100 µM in the assay with SW-620 colon. Besides, the TGI in the assay with HOP-92 NSCLC is more than 100 µM; in the assay with MALME-3M melanoma, 9.35 µM; in the assay with MDA-MB-231 breast it was more than 100 µM.
For `c1ccc2c(c1)c(NCCCCN1CCCCC1)cc1c3ccccc3c(NCCCCN3CCCCC3)cc21`, the GI50 was 28.7 µM in the assay on UO-31 renal; 15.7 µM in the assay on RXF 393 renal; 12 µM with 786-0 renal; 19.5 µM in the assay on UACC-62 melanoma; 10.6 µM in the assay with SW-620 colon; 20.4 µM with HOP-92 NSCLC. In addition, the values for the GI50 with MALME-3M melanoma and in the assay with MDA-MB-231 breast were 12.9 µM and 17.2 µM, respectively. Moreover, the TGI with UO-31 renal is more than 100 µM; in the assay with RXF 393 renal, 38.2 µM; in the assay with 786-0 renal, 29.1 µM; in the assay with UACC-62 melanoma it was 35.4 µM; in the assay on SW-620 colon it was more than 100 µM; in the assay with HOP-92 NSCLC, 52.7 µM. For the same molecule, the TGI in the assay with MALME-3M melanoma turned out to be 38.7 µM; in the assay on MDA-MB-231 breast, 35.7 µM.
Regarding `O=C(/C(=C/c1ccc([N+](=O)[O-])cc1)c1ccccc1)c1ccccc1`, the GI50 is 2.78 µM in the assay on RXF 393 renal; 3.56 µM in the assay with 786-0 renal; 3.33 µM in the assay with HT29 colon; 2.27 µM in the assay with SK-MEL-28 melanoma; 2.22 µM in the assay with HOP-92 NSCLC; 3.16 µM in the assay with MDA-MB-231 breast. Further, the TGI in the assay on RXF 393 renal is 6.78 µM; in the assay on 786-0 renal, more than 100 µM; in the assay with HT29 colon it was more than 100 µM; with SK-MEL-28 melanoma it was 5.63 µM; in the assay with HOP-92 NSCLC, 6.98 µM; with MDA-MB-231 breast it was more than 100 µM.
Regarding `COc1cc2c(c(OC)c1OC)-c1ncc3cc(OC)c(OC)c(OC)c3c1C2`, the GI50 was 20.2 µM with UO-31 renal; 11.2 µM in the assay on RXF 393 renal; 35.9 µM in the assay on 786-0 renal; 25.4 µM in the assay with SK-MEL-28 melanoma; 17.4 µM with UACC-62 melanoma; 32.4 µM in the assay with SW-620 colon. Besides, the results for the GI50 with HOP-92 NSCLC and in the assay on MDA-MB-231 breast were 52.6 µM and 21.3 µM, respectively. In addition, the TGI is more than 100 µM in the assay with UO-31 renal; 33.1 µM in the assay on RXF 393 renal; more than 100 µM in the assay on 786-0 renal; 78.1 µM in the assay on SK-MEL-28 melanoma; 34 µM with UACC-62 melanoma; 98.7 µM in the assay with SW-620 colon. In addition, the TGI in the assay on HOP-92 NSCLC was more than 100 µM; in the assay with MDA-MB-231 breast, 70.8 µM.
For `COc1cccc(C=Nc2cc(C)ccn2)c1O.COc1cccc(C=Nc2cc(C)ccn2)c1O.[Cu]`, the GI50 in the assay on RXF 393 renal was 11.9 µM; with 786-0 renal, 14.3 µM; in the assay on HT29 colon, 23.1 µM; with SK-MEL-28 melanoma, 21.7 µM; in the assay with UACC-62 melanoma it was 15.8 µM; in the assay with SW-620 colon it was 18.3 µM. The results for the GI50 in the assay on HOP-92 NSCLC, in the assay with MALME-3M melanoma and in the assay on MDA-MB-231 breast were 30.3 µM, 16.6 µM and 23.2 µM, respectively. The TGI stood at 34.8 µM in the assay on RXF 393 renal; 45.2 µM with 786-0 renal; 52.4 µM in the assay on HT29 colon; 48 µM in the assay with SK-MEL-28 melanoma; 31.9 µM in the assay on UACC-62 melanoma; 51.9 µM with SW-620 colon. For the same molecule, the TGI worked out at 50.6 µM in the assay with HOP-92 NSCLC, 31.7 µM in the assay on MALME-3M melanoma and 50.4 µM in the assay on MDA-MB-231 breast.
Take `Cc1ccc(-c2cc(-c3ccc(C)cc3)nc(NCCNc3ccnc4cc(Cl)ccc34)n2)cc1`: the GI50 in the assay on UO-31 renal is 1.37 µM; with 786-0 renal, 1.79 µM; in the assay with HT29 colon, 1.74 µM; in the assay with SK-MEL-28 melanoma, 1.76 µM; in the assay on UACC-62 melanoma, 1.77 µM; with SW-620 colon, 1.71 µM. The GI50 with HOP-92 NSCLC is 1.23 µM; in the assay with MALME-3M melanoma, 1.82 µM; with MDA-MB-231 breast, 1.88 µM. The TGI in the assay with UO-31 renal stood at 2.85 µM; in the assay with 786-0 renal it was 3.67 µM; in the assay with HT29 colon, 3.37 µM; with SK-MEL-28 melanoma, 3.38 µM; in the assay with UACC-62 melanoma, 3.38 µM; in the assay on SW-620 colon, 3.49 µM. For the same molecule, the TGI in the assay on HOP-92 NSCLC stood at 2.73 µM; in the assay on MALME-3M melanoma, 3.52 µM; in the assay on MDA-MB-231 breast, 3.67 µM.
Consider `Nc1ncnc2[nH]ncc12`, for which the GI50 in the assay on UO-31 renal was 0.232 µM; in the assay with RXF 393 renal it was 0.86 µM; in the assay with 786-0 renal, 0.623 µM; with HT29 colon, 1.83 µM; in the assay on SK-MEL-28 melanoma, 2.77 µM; in the assay with UACC-62 melanoma, 0.512 µM. Besides, the GI50 with SW-620 colon was 0.646 µM; with HOP-92 NSCLC, 0.431 µM; with MDA-MB-231 breast, 0.577 µM. Besides, the TGI with UO-31 renal was 0.916 µM; in the assay with RXF 393 renal, more than 28.6 µM; with 786-0 renal, 21.2 µM; in the assay with HT29 colon, more than 94.5 µM; in the assay on SK-MEL-28 melanoma, 99 µM; with UACC-62 melanoma, 3.48 µM. The TGI with SW-620 colon is more than 100 µM; with HOP-92 NSCLC, 3.61 µM; with MDA-MB-231 breast it was more than 100 µM.
For the molecule `Clc1cc(Cl)c(OCC#CI)cc1Cl`, the GI50 in the assay with RXF 393 renal was 2.37 µM; in the assay with 786-0 renal, 1.69 µM; in the assay on HT29 colon, 2.1 µM; in the assay on SK-MEL-28 melanoma it was 2.12 µM; in the assay on UACC-62 melanoma, 5.05 µM; with SW-620 colon it was 1.76 µM. Moreover, the GI50 with HOP-92 NSCLC is 15.1 µM; in the assay with MDA-MB-231 breast it was 13.5 µM. Besides, the TGI with RXF 393 renal was 6.28 µM; in the assay with 786-0 renal, 3.39 µM; with HT29 colon it was 5.66 µM; in the assay on SK-MEL-28 melanoma, 5.14 µM; with UACC-62 melanoma it was 19.4 µM; in the assay with SW-620 colon, 3.88 µM. In addition, the TGI in the assay with HOP-92 NSCLC was 37.1 µM; in the assay on MDA-MB-231 breast, 28 µM.
As for `CCCCCCCCCCCCCCCCCC(=O)OCC(COC1OC(COP(=O)(O)O)C(O)C(O)C1O)OC(=O)CCCCCCCCCCCCCCCCC` (stereo unspecified), the TGI amounted to 16.8 µM with RXF 393 renal; 14.9 µM in the assay on 786-0 renal; 11.7 µM with HT29 colon; 18 µM in the assay with SK-MEL-28 melanoma; 16.3 µM in the assay on UACC-62 melanoma; 17.9 µM in the assay on SW-620 colon. In addition, the TGI worked out at 10.5 µM in the assay on HOP-92 NSCLC, 14.2 µM in the assay on MALME-3M melanoma and 9.24 µM in the assay with MDA-MB-231 breast.

These data come from PubChem BioAssay (NCI).
